# Test results taken from US4337760A, “Method for the treatment of tumors with β-glucuronidase activity dependent pharmaceuticals” (Schwimmer; Adolf, priority 1979, dated 1982).
# What was measured:
# β-glucuronidase [1] = assay: Incubation with β-glucuronidase; type: biochemical
# Procedure: The free acid form of the compound was formed by treating the 2,4-dinitrophenyl-methyl(tri-O-acetyl-β-D-glucopyranosyl bromide)-uronate with a one-half molar amount of barium hydroxide to produce the barium salt. This barium salt of the glucuronide precipitates as a white amorphous material. An equimolar solution of H2 SO4 releases the free glucuronide. Distillation of the supernatant yielded bright yellow-brown crystals having a melting point of 179°-180° C.
# [2] = alkaline vs acid pH; cited from earlier work
# β-glucuronidase [3] = conditions: cited from earlier work
# [4] = Acute intravenous toxicity to rabbits, range finding screen; type: in vivo, NZW rabbits; conditions: i.v.; for Mortality ratio: 14 day observation
# Procedure: (§1) NZW rabbits in the weight range of 2,000 to 3,200 g for females and 2,200 to 3,800 g for males were injected intravenously with mandelonitrile β-D-glucuronic acid solution. Rabbits injected with saline alone served as the control. The mandelonitrile β-D-glucuronic acid solution contained 10% mandelonitrile.
# (§2) During the 14 day observation period a record was kept of all mortalities and signs of toxicity.
# [5] = Acute intravenous toxicity to rabbits, full scale test; type: in vivo, NZW rabbits; conditions: for acute median lethal intravenous dose (LD 50): 10% solution, 95% confidence limits, method of Weil
# Procedure: as §1, §2
# Dosing was then extended to larger groups of rabbits (5 males and 5 females per group) in order to locate the median lethal dose more precisely.
# All the deaths of all the groups occurred within 3 hours after dosing.
# The acute median lethal intravenous dose (LD 50) and its 95% confidence limints calculated by the method of Weil, C. S., 1952, Biometrics, 8:249, to rabbits of mandelonitrile-β-D-glucuronic acid 10% solution are calculated to be: […]
# trophoblastic cells = conditions: reported; cited from earlier work
# [6] = in vivo; cited from earlier work
compound,measurement,setting,value
"O=C(O)[C@H]1O[C@@H](Oc2ccc([N+](=O)[O-])cc2[N+](=O)[O-])[C@H](O)[C@@H](O)[C@@H]1O [2,4-dinitrophenol-β-D-glucuronic acid]",product on incubation with β-glucuronidase,β-glucuronidase [1],"produced 2,4-dinitrophenol"
"Cc1cc(O)cc(C)c1Cl [4-chloro-3,5-xylanol]",pH-dependent solubility,[2],water soluble at alkaline pH's and lipid-soluble at acid pH's
Oc1c(I)cc(Cl)c2cccnc12 [5-chloro-7-iodo-8-quinolinol],pH-dependent solubility,[2],water soluble at alkaline pH's and lipid-soluble at acid pH's
N#C[C@H](O[C@@H]1O[C@H](CO[C@@H]2O[C@H](CO)[C@@H](O)[C@H](O)[C@H]2O)[C@@H](O)[C@H](O)[C@H]1O)c1ccccc1 [amygdalin],splitting by the enzyme β-glucuronidase,β-glucuronidase [3],cannot be split
"N#CC(O[C@@H]1O[C@H](C(=O)O)[C@@H](O)[C@H](O)[C@H]1O)c1ccccc1 (stereo partly drawn) [mandelonitrile β-D-glucuronic acid, Mandelonitrile β-D-glucuronic acid]",Mortality ratio,[4]; 0.25 ml/kg,0/2
same,Mortality ratio,[4]; 0.5 ml/kg,1/2
same,Mortality ratio,[4]; 1.0 ml/kg,2/2
same,Mortality ratio,[4]; 2.0 ml/kg,2/2
same,Mortality ratio,[4]; 4.0 ml/kg,2/2
same,median lethal intravenous dose (LD-50),"[4]; rabbits, preliminary range finding",0.23-2 ml per kg body weight
same,Time of all the deaths of all the groups after dosing,"[5]; all groups, i.v.",≤ 3 h
same,maximum safe dose,"[5]; believed, from the rabbit data",~0.44 ml/kg body weight
same,acute median lethal intravenous dose (LD 50),[5]; females,0.6873 (0.6442-0.7304) ml/kg body weight
same,Mortality ratio,"[5]; females, i.v., 0.44 ml/kg",0/5
same,Mortality ratio,"[5]; females, i.v., 0.66 ml/kg",2/5
same,Time of death after dosing: No of hours,"[5]; females, i.v., 0.66 ml/kg",< 3 h
same,Time of death after dosing: No. of animals,"[5]; females, i.v., 0.66 ml/kg",2 animals
same,Mortality ratio,"[5]; females, i.v., 1.0 ml/kg",5/5
same,Time of death after dosing: No of hours,"[5]; females, i.v., 1.0 ml/kg",< 3 h
same,Time of death after dosing: No. of animals,"[5]; females, i.v., 1.0 ml/kg",5 animals
same,Mortality ratio,"[5]; females, i.v., 1.5 ml/kg",5/5
same,Time of death after dosing: No of hours,"[5]; females, i.v., 1.5 ml/kg",< 3 h
same,Time of death after dosing: No. of animals,"[5]; females, i.v., 1.5 ml/kg",5 animals
same,Mortality ratio,"[5]; females, i.v., 2.25 ml/kg",5/5
same,Time of death after dosing: No of hours,"[5]; females, i.v., 2.25 ml/kg",< 3 h
same,Time of death after dosing: No. of animals,"[5]; females, i.v., 2.25 ml/kg",5 animals
same,Clinical symptoms of surviving animals,[5]; following 14 days,did not show any clinical symptoms
same,Autopsy of all animals,[5]; gross pathology,did not show clear gross pathological changes
same,acute median lethal intravenous dose (LD 50),[5]; males,0.8419 (0.7809-0.9029) ml/kg body weight
same,Mortality ratio,"[5]; males, i.v., 0.44 ml/kg",0/5
same,Mortality ratio,"[5]; males, i.v., 0.66 ml/kg",2/5
same,Time of death after dosing: No of hours,"[5]; males, i.v., 0.66 ml/kg",< 3 h
same,Time of death after dosing: No. of animals,"[5]; males, i.v., 0.66 ml/kg",2 animals
same,Mortality ratio,"[5]; males, i.v., 1.0 ml/kg",3/5
same,Time of death after dosing: No of hours,"[5]; males, i.v., 1.0 ml/kg",< 3 h
same,Time of death after dosing: No. of animals,"[5]; males, i.v., 1.0 ml/kg",3 animals
same,Mortality ratio,"[5]; males, i.v., 1.5 ml/kg",4/5
same,Time of death after dosing: No of hours,"[5]; males, i.v., 1.5 ml/kg",< 3 h
same,Time of death after dosing: No. of animals,"[5]; males, i.v., 1.5 ml/kg",4 animals
same,Mortality ratio,"[5]; males, i.v., 2.25 ml/kg",5/5
same,Time of death after dosing: No of hours,"[5]; males, i.v., 2.25 ml/kg",< 3 h
same,Time of death after dosing: No. of animals,"[5]; males, i.v., 2.25 ml/kg",5 animals
same,Signs of reaction to treatment,"[5]; observed 2 minutes after dosing, i.v.",ataxia and paralysis
same,Early deaths,"[5]; two minutes after the signs of reaction, high dose group",a few animals of the high dose group died
C[C@]12CC[C@H]3[C@@H](CCC4=CC(=O)CC[C@@]43C)[C@@H]1CC[C@@H]2O [testosterone],β-glucuronidase activity in trophoblastic cells,trophoblastic cells,induce β-glucuronidase activity
Neomycin,known adverse effect,[6],cannot be administered internally because of its toxicity
